How the values were obtained:
PC3 cells = assay: EB1 Comet (microtubule disruption) assay; format: cell-based, human; details: Homo sapiens, PC-3, 1 h, 1 hour treatment, read-out: EB1 pLAC (converted)
Outline: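 Readout is loss of Eb1 plus-end foci, scored by immunofluorescence microscopy, in PC3 cells after 1 h compound treatment at 37 °C with 0.6% final DMSO. LAC is defined as the lowest concentration leaving at least 50% of cells without Eb1 foci.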

HCT116 cells = assay: Mitotic arrest assay on HCT116 cells (phospho-histone H3 Ser10); format: cell-based, human; details: Homo sapiens, HCT-116, HCT116 cells; lowest active dose; read-out: Mitotic arrest HCT116 LAD (converted)
Outline: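 Read-out is imaging of phospho-histone H3 Ser10 (Alexa Fluor 488) with Hoechst nuclear counting, after 6 h compound exposure at 37 °C, DMSO ≤0.1%. LAD is the lowest dose at which the blank-corrected value over SD exceeds 5; triplicates, low-count wells excluded.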

tubulin = assay: Tubulin polymerization assay; format: biochemical; set-up: key: a compound showing 0 to 50% inhibition at 20 μM is reported as score 1; Score 2 compounds are defined as compound showing more than 50% inhibition at 20 μM and less than 50% inhibition at 5 μM; a compound showing more than 50% inhibition at 5 μM is reported as score 3; details: tested at 20 μM and 5 μM
Outline: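 Cytoskeleton kit tubulin was run in a 10 µl final volume at 37 °C, with fluorescence read every minute for 1 h. Polymerization was taken as the maximum slope (4-point linear regression) and expressed as % of no-compound control. Compounds were tested at 20 µM, then at 5 µM if inhibition exceeded 50%, and scored by % inhibition.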

Structure (SMILES) | minimal effective concentration (PC3 cells) | minimal effective concentration (HCT116 cells) | tubulin polymerisation score (tubulin)
CCc1cc2ccc([C@@](C)(C#N)Cc3cccc(N(C)C)c3)cc2[nH]c1=O (single isomer, unassigned) [Compound 258] | 0.316 µM | 0.1 µM | 
CCc1cc2ccc([C@](C)(C#N)Cc3cccc(N(C)C)c3)cc2[nH]c1=O (single isomer, unassigned) [Compound 259] |  | 10 µM | 
CCC[C@@](C#N)(Cc1ccccc1)c1ccc2cc(CC)c(=O)[nH]c2c1 (single isomer, unassigned) [Compound 263] | 3.16 µM | 1 µM | 
CCC[C@](C#N)(Cc1ccccc1)c1ccc2cc(CC)c(=O)[nH]c2c1 (single isomer, unassigned) [Compound 264] |  | 10 µM | 
CCc1cc2ccc([C@@](C)(C#N)Cc3cccc(C#N)c3)cc2[nH]c1=O (single isomer, unassigned) [Compound 268] |  | 10 µM | 1 (a compound showing 0 to 50% inhibition at 20 μM is reported as score 1)
CCc1cc2ccc([C@](C)(C#N)C[C@@H]3Cc4cc(C)ccc4O3)cc2[nH]c1=O (single isomer, unassigned) [Compound 400] |  | 10 µM | 
CCc1cc2ccc(C(C)(C#N)Cc3cccc(OC[C@@H](O)CO)c3)cc2[nH]c1=O (some centres unmarked) [Compound 56] | 3.16 µM | 3 µM | 
CCc1cc2ccc(C(C)(C#N)Cc3cccc(CNS(C)(=O)=O)c3)cc2[nH]c1=O (centres unmarked) [Compound 170] | 3.16 µM | 3 µM | 
CCc1cc2ccc([C@](C)(C#N)[C@H](C)c3ccccc3)cc2[nH]c1=O [Compound 200] | 0.316 µM | 0.3 µM | 
CCc1cc2ccc(C(C)(C#N)Cc3cccc(C#C[Si](C)(C)C)n3)cc2[nH]c1=O (centres unmarked) [Compound 210] | 0.316 µM | 1 µM | 
CCc1cc2ccc(C(C)(C#N)Cc3cccc(OCCOC)n3)cc2[nH]c1=O (centres unmarked) [Compound 219] | 1 µM | 1 µM | 
CCc1cc2ccc(C(C)(C#N)Cc3cccc(OCCO)c3)cc2[nH]c1=O (centres unmarked) [Compound 262] |  | 0.3 µM | 2
CCc1cc2ccc(C(C)(C#N)CCOc3cccc(C(F)(F)F)c3)cc2[nH]c1=O (centres unmarked) [Compound 274] |  | 1 µM | 
CCc1cc2ccc(C(C)(C#N)Cc3cccc(/C=C/S(C)(=O)=O)c3)cc2[nH]c1=O (centres unmarked) [Compound 292] | 0.1 µM | 0.1 µM | 
CCc1c(Cl)c2ccc(C(C)(C#N)Cc3cccc(C#N)c3)cc2[nH]c1=O (centres unmarked) [Compound 293] | 1 µM | 0.3 µM | 
CCc1cc2cc(OC)c(C(C)(C#N)Cc3ccccc3)cc2[nH]c1=O (centres unmarked) [Compound 294] |  | 3 µM | 
CCc1cc2ccc(C(C)(C#N)Cc3cccc(C#CCOC)c3)cc2[nH]c1=O (centres unmarked) [Compound 297] | 0.1 µM | 0.3 µM | 
CCc1cc2ccc(C(C)(C#N)Cc3cccc(C#CCN(C)C)c3)cc2[nH]c1=O (centres unmarked) [Compound 298] | 1 µM | 1 µM | 
CCc1cc2ccc(C(C)(C#N)CNCc3cccc(C#N)c3)cc2[nH]c1=O (centres unmarked) [Compound 301] | 3.16 µM | 1 µM | 
CCc1cc2ccc(C(C)(C#N)Cc3cnc(Cl)nc3Cl)cc2[nH]c1=O (centres unmarked) [Compound 306] | 3.16 µM | 10 µM | 
COc1cc(OC)nc(CC(C)(C#N)c2ccc3cc(C)c(=O)[nH]c3c2)n1 (centres unmarked) [Compound 308] |  | 0.1 µM | 2
CCOc1cc(OCC)nc(CC(C)(C#N)c2ccc3cc(CC)c(=O)[nH]c3c2)n1 (centres unmarked) [Compound 309] | 3.16 µM | 1 µM | 

Structure (SMILES) | minimal effective concentration (PC3 cells) | minimal effective concentration (HCT116 cells) | tubulin polymerisation score (tubulin)
CCc1cc2ccc(C(C)(C#N)Cc3cccc(Cl)n3)cc2[nH]c1=O (centres unmarked) [Compound 310] | 1 µM | 0.3 µM | 
CCc1cc2ccc(C(C)(C#N)Cc3ncc(C)c(OC)c3C)cc2[nH]c1=O (centres unmarked) [Compound 311] | 3.16 µM | 1 µM | 
CCc1cc2ccc(C(C)(C#N)Cc3ccc(C)nc3)cc2[nH]c1=O (centres unmarked) [Compound 327] |  | 3 µM | 1 (a compound showing 0 to 50% inhibition at 20 μM is reported as score 1)
CCCn1ccnc1CC(C)(C#N)c1ccc2cc(CC)c(=O)[nH]c2c1 (centres unmarked) [Compound 335] | 10 µM | 3 µM | 
CCc1cc2ccc(C(C)(C#N)Cc3ccc4ccccc4n3)cc2[nH]c1=O (centres unmarked) [Compound 336] | 1 µM | 1 µM | 
CCc1cc2ccc(C(C)(C#N)Cc3nccn3CC)cc2[nH]c1=O (centres unmarked) [Compound 337] | 1 µM | 1 µM | 
CCc1cc2ccc(C(C)(C#N)Cc3cccc(C)n3)cc2[nH]c1=O (centres unmarked) [Compound 343] | 3.16 µM | 0.3 µM | 
CCc1cc2ccc(C(C)(C#N)Cc3cccc(Br)n3)cc2[nH]c1=O (centres unmarked) [Compound 344] | 0.316 µM | 0.3 µM | 
CCc1cc2ccc(C(C)(C#N)Cc3ccc(OC)nc3)cc2[nH]c1=O (centres unmarked) [Compound 352] | 1 µM | 1 µM | 
CCc1cc2ccc(C(C)(C#N)Cc3cnc(OC)nc3Cl)cc2[nH]c1=O (centres unmarked) [Compound 356] | 0.1 µM | 0.1 µM | 
CCc1cc2ccc(C(C)(C#N)Cc3cnc(OC)nc3OC)cc2[nH]c1=O (centres unmarked) [Compound 357] | 0.316 µM | 0.3 µM | 
CCc1cc2ccc(C(C)(C#N)Cc3cc(OCCOC)nc(C)n3)cc2[nH]c1=O (centres unmarked) [Compound 363] | 1 µM | 3 µM | 
CCc1cc2ccc(C(C)(C#N)Cc3cc(N(C)C)nc(Cl)n3)cc2[nH]c1=O (centres unmarked) [Compound 364] | 1 µM | 1 µM | 
CCc1cc2ccc(C(C)(C#N)Cc3cc(OC)nc(C)n3)cc2[nH]c1=O (centres unmarked) [Compound 366] | < 0.0316 µM | 0.3 µM | 
CCc1cc2ccc(C(C)(C#N)Cc3cc(OCCOC)nc(Cl)n3)cc2[nH]c1=O (centres unmarked) [Compound 367] | 1 µM | 1 µM | 
CCc1cc2ccc(C(C)(C#N)Cc3nc(C)cc(C)n3)cc2[nH]c1=O (centres unmarked) [Compound 368] | 1 µM | 1 µM | 
CCc1cc2ccc(C(C)(C#N)Cc3nccc(OCCOC)n3)cc2[nH]c1=O (centres unmarked) [Compound 369] | 3.16 µM | 1 µM | 
CCc1cc2ccc(C(C)(C#N)Cc3nc(Cl)cc(OCCOC)n3)cc2[nH]c1=O (centres unmarked) [Compound 370] | 1 µM | 1 µM | 
CCc1cc2ccc(C(C)(C#N)Cc3cc(Cl)nc(Cl)c3)cc2[nH]c1=O (centres unmarked) [Compound 372] | 1 µM | 0.1 µM | 
CCc1cc2ccc(C(C)(C#N)Cc3cc(OC)ccn3)cc2[nH]c1=O (centres unmarked) [Compound 373] |  | 1 µM | 
CCc1cc2ccc(C(C)(C#N)CC3CCc4ccccc4O3)cc2[nH]c1=O (centres unmarked) [Compound 399] | 0.316 µM | 0.3 µM | 

Source: patent US8778966B2, “Quinolinone derivatives as PARP and tank inhibitors” (Janssen Pharmaceutica, NV, priority 2007, dated 2014)
